Reference: ChEMBL document CHEMBL5625202, “Synthesis, characterization and anti-breast cancer activities of stachydrine derivatives” (Eur J Med Chem, 2023)
Calls of active or inactive are those of the source. The rule behind the calls is not given here.

Columns and labels:
[1] = Toxicity in BALB/c mouse implanted with mouse 4T1 cells assessed as splenic edema at 0.2 mmol/Kg, po administered once every day for 14 days; format: organism-based; conditions: in vivo, 336 h, time 14 day
4T1 [2] = experiment: Anticancer activity against mouse 4T1 cells assessed as inhibition of cell growth incubated for 72 hrs by CCK-8 assay; format: functional, cell-based; conditions: 4T1, 72 h
[3] = Toxicity in BALB/c mouse implanted with mouse 4T1 cells assessed as increase in mean platelet volume at 0.2 mmol/Kg, po administered once every day for 14 days by routine blood analysis; format: organism-based; conditions: in vivo, 336 h, time 14 day
[4] = Toxicity in BALB/c mouse implanted with mouse 4T1 cells assessed as body weight loss at 0.2 mmol/Kg, po administered once daily for 14 days; format: organism-based; conditions: in vivo, 336 h, time 14 day
[5] = Cmax in Sprague-Dawley rat plasma at 10 mg/kg, po measured upto 24 hrs by LC-MS/MS analysis; format: ADME, organism-based
[6] = Toxicity in BALB/c mouse implanted with mouse 4T1 cells assessed as change in liver histopathology at 0.2 mmol/Kg, po administered once every day for 14 days; format: organism-based; conditions: in vivo, 336 h, time 14 day
[7] = Toxicity in BALB/c mouse implanted with mouse 4T1 cells assessed as increase in neutrophil granulocytes at 0.2 mmol/Kg, po administered once every day for 14 days by routine blood analysis; format: organism-based; conditions: in vivo, 336 h, time 14 day
4T1 [8] = experiment: Antitumor activity against mouse 4T1 cells implanted in BALB/c mouse assessed as change in tumor weight at 0.2 mmol/Kg, po administered once every day for 14 days; format: functional, organism-based; conditions: time 14.0 day
[9] = Prodrug conversion in carboxylesterase (unknown origin) solution assessed as drug hydrolysis by measuring stachydrine release at 3 to 20 hrs; format: ADME, Homo sapiens; conditions: time 3-20 hrs
[10] = Toxicity in BALB/c mouse implanted with mouse 4T1 cells assessed as change in lung histopathology at 0.2 mmol/Kg, po administered once every day for 14 days; format: organism-based; conditions: in vivo, 336 h, time 14 day
4T1 [11] = experiment: Induction of apoptosis in mouse 4T1 cells assessed as caspase-3 activation at 10 uM incubated for 24 hrs by Western blot analysis; format: functional, cell-based
[12] = Toxicity in BALB/c mouse implanted with mouse 4T1 cells assessed as increase in ALT level at 0.2 mmol/Kg, po administered once every day for 14 days by routine blood analysis; format: organism-based; conditions: in vivo, 336 h, time 14 day
4T1 [13] = experiment: Induction of G0/G1 phase cell cycle arrest in mouse 4T1 cells assessed as decrease in G2/M phase cells at 1.25 to 40 uM incubated for 24 hrs by flow cytometry; format: functional, cell-based; conditions: dose 1.25-40 µM
[14] = Toxicity in BALB/c mouse implanted with mouse 4T1 cells assessed as increase in lymphocytes at 0.2 mmol/Kg, po administered once every day for 14 days by routine blood analysis; format: organism-based; conditions: in vivo, 336 h, time 14 day
4T1 [15] = experiment: Anticancer activity against mouse 4T1 cells assessed as inhibition of cell growth incubated for 48 hrs by CCK-8 assay; format: functional, cell-based; conditions: 4T1, 48 h
4T1 [16] = experiment: Antitumor activity against mouse 4T1 cells implanted in BALB/c mouse assessed as tumor cell necrosis at 0.2 mmol/Kg, po administered once every day for 14 days by histological staining based analysis; format: functional, organism-based; conditions: time 14.0 day
[17] = Prodrug conversion in serum (unknown origin) assessed as drug hydrolysis by measuring stachydrine release at 3 to 20 hrs; format: ADME, cell-free; conditions: time 3-20 hrs
4T1 [18] = experiment: Induction of apoptosis in mouse 4T1 cells assessed as decrease in Bcl2 expression at 10 uM incubated for 24 hrs by Western blot analysis; format: functional, cell-based
[19] = Toxicity in BALB/c mouse implanted with mouse 4T1 cells assessed as increase in AST level at 0.2 mmol/Kg, po administered once every day for 14 days by routine blood analysis; format: organism-based; conditions: in vivo, 336 h, time 14 day
4T1 [20] = experiment: Inhibition of cell migration in mouse 4T1 cells assessed as reduction in wound healing incubated for 24 hrs by microscopic analysis; format: functional, cell-based
[21] = Toxicity in BALB/c mouse implanted with mouse 4T1 cells assessed as change in heart histopathology at 0.2 mmol/Kg, po administered once every day for 14 days; format: organism-based; conditions: in vivo, 336 h, time 14 day
[22] = Toxicity in BALB/c mouse implanted with mouse 4T1 cells assessed as effect on BUN level at 0.2 mmol/Kg, po administered once every day for 14 days by routine blood analysis; format: organism-based; conditions: in vivo, 336 h, time 14 day
[23] = Toxicity in BALB/c mouse implanted with mouse 4T1 cells assessed as change in kidney histopathology at 0.2 mmol/Kg, po administered once every day for 14 days; format: organism-based; conditions: in vivo, 336 h, time 14 day
[24] = Toxicity in BALB/c mouse implanted with mouse 4T1 cells assessed as increase in monocytes at 0.2 mmol/Kg, po administered once every day for 14 days by routine blood analysis; format: organism-based; conditions: in vivo, 336 h, time 14 day
[25] = Toxicity in BALB/c mouse implanted with mouse 4T1 cells assessed as effect on CREA level at 0.2 mmol/Kg, po administered once every day for 14 days by routine blood analysis; format: organism-based; conditions: in vivo, 336 h, time 14 day
[26] = Prodrug conversion in cell culture medium containing 10% FBS assessed as drug hydrolysis by measuring stachydrine release at 3 to 20 hrs; format: ADME; conditions: cattle; time 3-20 hrs
[27] = Toxicity in BALB/c mouse implanted with mouse 4T1 cells assessed as increase in splenic red pulp at 0.2 mmol/Kg, po administered once every day for 14 days; format: organism-based; conditions: in vivo, 336 h, time 14 day
[28] = Toxicity in BALB/c mouse implanted with mouse 4T1 cells assessed as increase in white blood cells at 0.2 mmol/Kg, po administered once every day for 14 days by routine blood analysis; format: organism-based; conditions: in vivo, 336 h, time 14 day
4T1 [29] = experiment: Induction of apoptosis in mouse 4T1 cells assessed as apoptotic rate at 10 micromol/L incubated for 24 hrs by Annexin-V/PI staining based flow cytometry relative to control; format: functional; conditions: dose 10 µmol/L, at 10 µM
4T1 [30] = experiment: Anticancer activity against mouse 4T1 cells assessed as inhibition of cell growth incubated for 24 hrs by CCK-8 assay; format: functional, cell-based; conditions: 4T1, 24 h
[31] = Toxicity in BALB/c mouse implanted with mouse 4T1 cells assessed as blurred spleen morphology at 0.2 mmol/Kg, po administered once every day for 14 days; format: organism-based; conditions: in vivo, 336 h, time 14 day
4T1 [32] = experiment: Induction of apoptosis in mouse 4T1 cells assessed as increase in cleaved caspase-3 expression at 10 uM incubated for 24 hrs by Western blot analysis; format: functional, cell-based
[33] = Tmax in Sprague-Dawley rat plasma at 10 mg/kg, po measured upto 24 hrs by LC-MS/MS analysis; format: ADME, organism-based
[34] = Toxicity in BALB/c mouse implanted with mouse 4T1 cells assessed as reduction in spleen index at 0.2 mmol/Kg, po administered once every day for 14 days relative to control; format: organism-based; set-up: scale not given: the % may be the effect or the level left; conditions: in vivo, 336 h, at 0.2 mmol/kg, time 14 day
4T1 [35] = experiment: Antitumor activity against mouse 4T1 cells implanted in BALB/c mouse assessed as appearance of larger void areas in tumor at 0.2 mmol/Kg, po administered once daily for 14 days by histological staining based analysis; format: functional, organism-based; conditions: time 14.0 day
[36] = Toxicity against BALB/c mouse implanted with mouse 4T1 cells assessed as animal death at 0.2 mmol/Kg, po administered once every day for 14 days; format: organism-based; conditions: in vivo, 336 h, time 14 day
4T1 [37] = experiment: Induction of apoptosis in mouse 4T1 cells assessed as apoptotic rate at 1.25 micromol/L incubated for 24 hrs by Annexin-V/PI staining based flow cytometry relative to control; format: functional; conditions: dose 1.25 µmol/L, at 1.25 µM
[38] = Prodrug conversion in Sprague-Dawley rat plasma assessed as Stachydrine release at 10 mg/kg, iv measured after 24 hrs by LC-MS/MS analysis; format: ADME, organism-based; conditions: in vivo

## CCCCCCCCCCCCOC(=O)C1CCC[N+]1(C)C.[Cl-] (stereo not drawn)
[1]
  Activity: Toxic
4T1 [2]
  IC50: 8.35 µM
[3]
  Activity: Non-Toxic
[4]
  Activity: Toxic
[5]
  Cmax: 6100 ng/mL
[6]
  Activity: Non-Toxic
[7]
  Activity: Non-Toxic
4T1 [8]
  Activity: Active
[9]
  Drug metabolism: Metabolite_Detected
[10]
  Activity: Non-Toxic
4T1 [11]
  Activity: Active
[12]
  Activity: Toxic
4T1 [13]
  Activity: Active
[14]
  Activity: Non-Toxic
4T1 [15]
  IC50: 17.9 µM
4T1 [16]
  Activity: Active
[17]
  Drug metabolism: Metabolite_Detected
4T1 [18]
  Activity: Active
[19]
  Activity: Toxic
4T1 [20]
  inhibition: Dose-Dependent Effect
[21]
  Activity: Non-Toxic
[22]
  Activity: Non-Toxic
[23]
  Activity: Non-Toxic
[24]
  Activity: Non-Toxic
[25]
  Activity: Non-Toxic
[26]
  Drug metabolism: Metabolite_Detected
[27]
  Activity: Toxic
[28]
  Activity: Non-Toxic
4T1 [29]
  Activity: 59%
4T1 [30]
  IC50: 24.7 µM
[31]
  Activity: Toxic
4T1 [32]
  Activity: Active
[33]
  Tmax: 2 h
[34]
  Activity: 60%
4T1 [35]
  Activity: Active
[36]
  Activity: Non-Toxic
4T1 [37]
  Activity: 38.5%
[38]
  Drug metabolism: Metabolite_Detected
